Laboratory results from US9243237B2, “Method for mass production of factor VII/VIIA” (HANMI SCIENCE CO., LTD, priority 2010, dated 2016).

Experiments:
Assay type in all cases: cell-based, Chinese hamster
[1] = tested on: CHO/dhfr- cells transformed with pX0GC-FVII; assay: Selection of human factor VII-expressing cells in MTX selection medium, expression level by enzyme immunoassay; conditions: MTX concentration of 10 nM or higher
Description: The transformed cells of Example <2-1> were seeded at a density of 2×10^4 cells/well to 24-well plates. When the cells were grown to almost full confluence, serum-free CHO-A-SFM (Gibco, Cat. No. 05-5072EF) supplemented with 0.3 mM sodium butyrate (Sigma, Cat. No. B5887) was aliquoted in an amount of 200 μL/well, followed by incubation at 33° C. for 48 hours in a 5% CO2 incubator. The cell culture was transferred to 1.5 mL tubes and centrifuged. Expression levels of human factor VII in the supernatants were measured by taking measurements using an enzyme immunoassay kit (American Diagnostica, Cat. no. 877) according to the manufacturer's instruction. In detail, the cell culture and the standard substance enclosed in the kit were diluted to certain concentrations in physiological saline containing 0.05% Tween-20, and the dilutions were added in an amount of 100 μL to each well of the kit and allowed to react at room temperature for one hour on a plate shaker. […] Five minutes later, 50 μL of a stopping solution was added to each well, followed by measuring absorbance at 450 nm. A standard curve and a function were obtained from the concentrations of the standard solution and the absorbance values obtained. […]

[2] = tested on: hFVII-expressing recombinant CHO cell line (HMF708); assay: Growth of the cell line in mass-scale production medium (4 L incubation tanks, continuous feed) containing sodium butyrate, hFVII level by enzyme immunoassay; conditions: for FVII Level (% compared to control %): 4 L, 30.0°C, 11-18 days
Description: (§1) The transformed cells of Example <2-1> were seeded at a density of 2×10^4 cells/well to 24-well plates. When the cells were grown to almost full confluence, serum-free CHO-A-SFM (Gibco, Cat. No. 05-5072EF) supplemented with 0.3 mM sodium butyrate (Sigma, Cat. No. B5887) was aliquoted in an amount of 200 μL/well, followed by incubation at 33° C. for 48 hours in a 5% CO2 incubator. The cell culture was transferred to 1.5 mL tubes and centrifuged. Expression levels of human factor VII in the supernatants were measured by taking measurements using an enzyme immunoassay kit (American Diagnostica, Cat. no. 877) according to the manufacturer's instruction. In detail, the cell culture and the standard substance enclosed in the kit were diluted to certain concentrations in physiological saline containing 0.05% Tween-20, and the dilutions were added in an amount of 100 μL to each well of the kit and allowed to react at room temperature for one hour on a plate shaker. After being washed four times with the washing solution enclosed in the kit, each of the wells was incubated at room temperature for one hour with 100 μL of an anti-human factor VII antibody on a plate shake. Each well was again washed four times with the washing solution and then incubated at room temperature for 30 min with 100 μL of an HRP (horseradish peroxidase)-conjugated antibody to the anti-human factor VII antibody. Subsequently, the wells were washed four times, and incubated with 100 μL of a substrate per well at room temperature. Five minutes later, 50 μL of a stopping solution was added to each well, followed by measuring absorbance at 450 nm. A standard curve and a function were obtained from the concentrations of the standard solution and the absorbance values obtained.
(§2) One vial (1×10^7 cells/mL) of the hFVII-expressing cell line which had been selected and assimilated to suspension culture in Example <2-3> was taken from a liquid nitrogen tank and thawed as soon as possible in a 37° C. bath. After being washed once with a seed culturing medium (EX-CELL CHO medium (Sigma, Cat. No. 63225C) supplemented with 0.3 g/L glutamine), the cell culture was centrifuged at 90×g for min and then inoculated into 50 mL of a seed culture medium in an Erlenmeyer flask (Corning, USA cat#431144). When grown for 1-2 days to a density of 10×10^5 cell/mL in a CO2 incubator (37° C., 5% CO2), the cells were centrifuged again in the same manner and then sub-cultured in 100 mL of a fresh seed culture medium in a new Erlenmeyer flask. The double-volume passage was continued until a sufficient number of cells were achieved.
The effect of sodium butyrate on the production of hFVII was examined when the cells were cultured on mass scale. For this, first, the recombinant CHO cell line which was being cultured was inoculated at a density of 1.2×10^7 cells/mL into 4 L of a production medium in each of incubation tanks which contained sodium butyrate (Cat. no. B5887, SIGMA, USA) at concentrations of 0.3, 1.0, 1.5 and 2.0 mM, respectively. The cells grown in the presence of 0.3 mM sodium butyrate were used as a control for comparison. To produce hVII, the cells were cultured at 30.0° C. for 11-18 days with the medium continuously fed at 0.5-1.0 VVD. The culturing was stopped when cellular activity was reduced to less than 80%. […]
In addition, after the cell cultures taken during the cultivation was centrifuged, the levels of hFVII in the supernatants were measured using an enzyme immunoassay method as in Example <2-2>.

[3] = tested on: hFVII-expressing recombinant CHO cell line (HMF708); assay: Growth of hFVII-expressing cell line in production medium containing sodium butyrate (50 mL Erlenmeyer flasks), hFVII level by enzyme immunoassay; conditions: for FVII Level (% compared to control %): 30.0°C, day 4, supernatant
Description: as §1
as §2, with “assimilated to a suspension culture” for “assimilated to suspension culture”, “90×g for 5 min and” for “90×g for min and”, “of 10×10^5 cells/mL in a” for “of 10×10^5 cell/mL in a”, “continued until there was a sufficient” for “continued until a sufficient”, “number of cells.” for “number of cells were achieved.”
The effect of sodium butyrate on the production of hFVII was examined. For this, first, the recombinant CHO cell line which was being cultured was inoculated at a density of 5.0×10^6 cells/mL into 50 mL of a production medium in each of three Erlenmeyer flasks which contained sodium butyrate (Cat. no. B5887, SIGMA, USA) at concentrations of 0.3, 1.0 and 1.5 mM, respectively. The cells grown in the presence of 0.3 mM sodium butyrate were used as a control for comparison. The cells were cultured at 30.0° C. for four days to produce hFVII. On day 4, the cell concentration and cellular activity of the cell cultures were examined. There were no changes in cell density and cellular activity among the cell cultures of different butyrate concentrations.
In addition, after centrifugation of the cell cultures on Day 4, the levels of hFVII in the supernatants were measured using an enzyme immunoassay method as in Example <2-2>.

[4] = 0.3 mM sodium butyrate (control)
[5] = 1.5 mM sodium butyrate, control = 0.3 mM
[6] = 1.0 mM sodium butyrate, day 4, control = 0.3 mM
[7] = 1.5 mM sodium butyrate, day 4, control = 0.3 mM
[8] = day 4, among cultures with 0.3, 1.0 and 1.5 mM butyrate

SMILES	expression level of human factor VII [1]	FVII Level (% compared to control %) [2, 4]	FVII Level (% compared to control %) ([2]; 1 mM sodium butyrate, control = 0.3 mM)	FVII Level (% compared to control %) [2, 5]	FVII Level (% compared to control %) ([2]; 2.0 mM sodium butyrate, control = 0.3 mM)	amounts of FVII produced ([2]; higher concentrations of sodium butyrate, in spite of reduced periods of time of production)	FVII Level (% compared to control %) [3, 4]	Final Cell Density (% compared to control) ([3]; 0.3 mM sodium butyrate (control), day 4)	FVII Level (% compared to control %) ([3]; 1.0 mM sodium butyrate, control = 0.3 mM)	Cellular Activity (% compared to control) [3, 6]	Final Cell Density (% compared to control) [3, 6]	FVII Level (% compared to control %) [3, 5]	Cellular Activity (% compared to control) [3, 7]	Final Cell Density (% compared to control) [3, 7]	production of hFVII ([3]; 0.3, 1.0 and 1.5 mM sodium butyrate)	activity at 300 µM ([3]; Cricetulus griseus, CHO, 96 h, 0.3 mM sodium butyrate (control), day 4, read-out: Cellular Activity (% compared to control))	cell density [3, 8]	cellular activity [3, 8]
CN(Cc1cnc2nc(N)nc(N)c2n1)c1ccc(C(=O)N[C@@H](CCC(=O)O)C(=O)O)cc1 [MTX, Methotrexate]	not increased	–	–	–	–	–	–	–	–	–	–	–	–	–	–	–	–	–
CCCC(=O)[O-].[Na+] [Sodium Butyrate, sodium butyrate]	–	100.0%	154.5%	157.7%	127.6%	higher amounts of FVII were produced	100.0%	100.0%	164.9%	100.2%	106.8%	190.1%	99.9%	108.5%	increased in a sodium butyrate dose-dependent manner	100%	no changes	no changes
